Experimental data published in patent publication US20230392173A1, “ENGINEERED BIOSYNTHETIC PATHWAY FOR PRODUCTION OF 4-AMINOPHENYLETHYLAMINE BY FERMENTATION” (Zymergen Inc., priority 2020, published 2023).

Experiments:
Format in all cases: cell-based
Bacillus licheniformis = tested on: Bacillus licheniformis
Method: (§1) FIG. 1: Toxicity impact of 4-APEA across a range of organisms tested in an Enzyscreen system. Various organisms are grown in media that is supplemented with the molecule of interest, and the growth of the organism is monitored over time. Analysis of the growth-time-course data allows determination of toxicity properties of the molecule of interest, such as the Minimal Inhibitory Concentration (MIC), the concentration at which growth is slowed to half (Ki), and the slope at which increased toxicity effects are observed (alpha). For FIG. 1, product toxicity was measured as a function of reduced substrate uptake with increasing product concentration.
(§2) The term “Ki,” as used herein, refers to the concentration of a chemical (e.g., 4-APEA) at which the maximal growth rate of cells in culture is slowed by half. Cultures of the cells are grown in media supplemented with varying concentrations of a chemical, and the cell growth is monitored over time. Exponential growth curve data at each chemical concentration are used to determine a specific growth rate p using the following equation:
(§3) where: X=cell concentration X0=cell concentration at time (t)=0 μ=specific growth rate. The maximal growth rate for each chemical concentration is determined (μobs) and the Ki is the chemical concentration at which the maximal growth rate has been slowed to half of the maximal growth rate in the absence of the chemical (μmax). Ki (denoted K1 below) can be determined from the equation:
(§4) where: CI=concentration of inhibitor KI=inhibition constant—inhibitor concentration where growth rate is half of maximum α=inhibition parameter to fit data μmax=the maximum growth rate of a culture in the absence of a chemical μobs=the maximum growth rate of a culture at a given concentration of a chemical
(§5) The term “alpha” (“α”), as used herein, refers to the slope at which toxicity effects are observed. Cultures of the cells are grown in media supplemented with increasing concentrations of a chemical, and the cell growth is monitored over time. Alpha can be determined from the equation: […]
(§6) One obstacle to efficient production of 4-aminophenylethylamine (4-APEA) by fermentation is that 4-APEA is toxic to many host microbes used conventionally for fermentation. FIG. 1 depicts the concentration of 4-APEA at which an organism's growth is slowed by half (Ki) and the slope (alpha) at which toxicity effects are observed over increasing 4-APEA concentrations. A larger Ki and smaller alpha indicate higher tolerance and less susceptibility to inhibition, respectively. […] K. phaffi is expected to perform similarly to K. pastoris as a production host.

Komagataella phaffi = tested on: Komagataella phaffi
Method: as §1, §2, §3, §4, §5, §6

Saccharomyces cerevisiae = tested on: Saccharomyces cerevisiae
Method: as §1, §2, §3, §4, §5, §6

Yarrowia lipolytica = tested on: Yarrowia lipolytica
Method: as §1, §2, §3, §4, §5, §6

NCCc1ccc(N)cc1 [Strain 4-APEA, 4-aminophenylethylamine]
toxicity of 4-APEA (growth inhibition) (Bacillus licheniformis): better results
toxicity of 4-APEA (growth inhibition) (Komagataella phaffi): better results
toxicity of 4-APEA (growth inhibition) (Saccharomyces cerevisiae): substantial toxicity
toxicity of 4-APEA (growth inhibition) (Yarrowia lipolytica): better results
